Measured values as given in patent US20020187944A1, “Inhibition of human immunodeficiency virus reverse transcriptase” (priority 2001, published 2002).

How the values were obtained:
[1] = target: T1, DNA-dependent DNA polymerase (DNA pol I, GibcoBRL) (Escherichia coli, UniProt P00582); test: DNA-dependent DNA polymerase reaction, radiolabel incorporation; format: biochemical, E. coli
T1 construct: purchased GibcoBRL
Description: (§1) Inhibition of HIV reverse transcriptase (RT) was studied in a one milliliter reaction mixture containing 12.5 μmol Tris-HCl (pH 8.3), 3 μmol MgCl2, 10 μmol KCl, 2.5 μmol dithiothreitol, 0.04 μmol of each dNTP, 1 μCi ^3H-TTP (50 Ci/mmol), 10 μl of DMSO containing 0-320 μg/ml of 9-O-methyl oxime erythromycin A (EMO), and 0.01 μg HIV-1 reverse transcriptase. DNA template (0.01 μg) from calf thymus was used as the substrate in the reaction. After 60 minutes incubation at 37° C., samples from the reaction were pipetted on 3 MM filter paper discs (Whatman), which were washed 5 times in cold trichloroacetic acid (5%) containing sodium pyrophosphate (0.01 M). After drying, the discs were counted in a toluene scintillation solution using a Beckman scintillation spectrometer. Reactions with DNA-dependent DNA polymerase (DNA pol I, GibcoBRL) or DNA-dependent RNA polymerase from E. coli were carried out as described above, except that ^3H-UTP replaced ^3H-TTP where appropriate.

[2] = target: T2, HIV-1 reverse transcriptase (Human immunodeficiency virus type 1 group M subtype B, UniProt P04585); test: Inhibition of HIV reverse transcriptase, 3H-TTP incorporation on calf thymus DNA template; format: biochemical; details: for HIV RT Radioactivity: 60 minutes at 37° C.
T2 construct: 0.01 μg HIV-1 reverse transcriptase
Description: as §1

[3] = target: DNA-dependent RNA polymerase from E. coli (Escherichia coli, UniProt P0A8T7+P0A8V2); test: DNA-dependent RNA polymerase reaction, 3H-UTP incorporation; format: biochemical
Description: as §1

[4] = gastric acid; stated without a test; cited from earlier work

Chain of DNA-dependent RNA polymerase from E. coli (P0A8V2 whole entry): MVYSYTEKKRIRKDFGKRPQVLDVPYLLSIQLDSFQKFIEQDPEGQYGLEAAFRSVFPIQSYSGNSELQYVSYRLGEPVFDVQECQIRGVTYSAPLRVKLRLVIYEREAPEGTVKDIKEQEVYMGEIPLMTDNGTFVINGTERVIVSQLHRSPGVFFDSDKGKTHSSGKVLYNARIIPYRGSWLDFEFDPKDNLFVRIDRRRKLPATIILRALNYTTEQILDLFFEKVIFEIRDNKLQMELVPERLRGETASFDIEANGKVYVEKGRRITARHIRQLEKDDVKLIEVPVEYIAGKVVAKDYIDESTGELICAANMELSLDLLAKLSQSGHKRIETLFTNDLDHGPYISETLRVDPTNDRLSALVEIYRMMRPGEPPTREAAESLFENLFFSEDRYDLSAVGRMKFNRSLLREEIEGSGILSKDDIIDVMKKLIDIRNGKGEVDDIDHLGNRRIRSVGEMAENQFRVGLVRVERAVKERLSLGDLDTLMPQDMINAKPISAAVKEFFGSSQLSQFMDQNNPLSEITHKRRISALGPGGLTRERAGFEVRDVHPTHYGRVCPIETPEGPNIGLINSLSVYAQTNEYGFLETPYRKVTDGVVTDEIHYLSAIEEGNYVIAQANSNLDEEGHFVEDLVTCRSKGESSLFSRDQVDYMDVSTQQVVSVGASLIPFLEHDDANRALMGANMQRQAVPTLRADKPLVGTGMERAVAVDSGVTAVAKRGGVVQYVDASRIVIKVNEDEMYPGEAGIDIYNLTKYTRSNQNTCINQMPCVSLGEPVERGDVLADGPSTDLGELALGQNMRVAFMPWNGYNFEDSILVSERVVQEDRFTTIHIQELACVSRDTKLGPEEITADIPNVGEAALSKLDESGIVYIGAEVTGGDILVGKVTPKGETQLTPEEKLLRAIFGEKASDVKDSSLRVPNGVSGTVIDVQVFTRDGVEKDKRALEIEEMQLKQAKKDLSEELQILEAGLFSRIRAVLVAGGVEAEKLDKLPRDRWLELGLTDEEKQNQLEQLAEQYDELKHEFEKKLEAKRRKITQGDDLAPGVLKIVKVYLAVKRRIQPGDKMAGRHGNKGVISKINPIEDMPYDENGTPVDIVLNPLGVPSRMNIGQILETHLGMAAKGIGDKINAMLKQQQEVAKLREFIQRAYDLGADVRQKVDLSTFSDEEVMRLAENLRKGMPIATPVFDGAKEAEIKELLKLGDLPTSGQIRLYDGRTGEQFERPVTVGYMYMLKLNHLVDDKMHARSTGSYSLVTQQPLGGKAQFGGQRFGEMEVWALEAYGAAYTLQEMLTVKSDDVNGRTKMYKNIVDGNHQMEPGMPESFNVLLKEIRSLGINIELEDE
Chain of DNA-dependent RNA polymerase from E. coli (P0A7Z4 whole entry, further chain): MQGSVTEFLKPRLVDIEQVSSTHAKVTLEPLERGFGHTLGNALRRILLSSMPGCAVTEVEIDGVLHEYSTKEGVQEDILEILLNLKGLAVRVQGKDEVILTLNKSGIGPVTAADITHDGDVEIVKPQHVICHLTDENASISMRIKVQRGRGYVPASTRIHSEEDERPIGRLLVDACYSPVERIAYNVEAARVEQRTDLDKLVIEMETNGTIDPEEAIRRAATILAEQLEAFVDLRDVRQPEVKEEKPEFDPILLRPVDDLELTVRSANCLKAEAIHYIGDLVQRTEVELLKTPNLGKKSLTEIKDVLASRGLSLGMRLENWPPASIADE
Chain of DNA-dependent RNA polymerase from E. coli (P0A800 whole entry, further chain): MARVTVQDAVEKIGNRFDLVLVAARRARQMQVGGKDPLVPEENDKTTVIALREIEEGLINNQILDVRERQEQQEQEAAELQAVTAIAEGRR
Chain of DNA-dependent RNA polymerase from E. coli (P0A8T7 whole entry): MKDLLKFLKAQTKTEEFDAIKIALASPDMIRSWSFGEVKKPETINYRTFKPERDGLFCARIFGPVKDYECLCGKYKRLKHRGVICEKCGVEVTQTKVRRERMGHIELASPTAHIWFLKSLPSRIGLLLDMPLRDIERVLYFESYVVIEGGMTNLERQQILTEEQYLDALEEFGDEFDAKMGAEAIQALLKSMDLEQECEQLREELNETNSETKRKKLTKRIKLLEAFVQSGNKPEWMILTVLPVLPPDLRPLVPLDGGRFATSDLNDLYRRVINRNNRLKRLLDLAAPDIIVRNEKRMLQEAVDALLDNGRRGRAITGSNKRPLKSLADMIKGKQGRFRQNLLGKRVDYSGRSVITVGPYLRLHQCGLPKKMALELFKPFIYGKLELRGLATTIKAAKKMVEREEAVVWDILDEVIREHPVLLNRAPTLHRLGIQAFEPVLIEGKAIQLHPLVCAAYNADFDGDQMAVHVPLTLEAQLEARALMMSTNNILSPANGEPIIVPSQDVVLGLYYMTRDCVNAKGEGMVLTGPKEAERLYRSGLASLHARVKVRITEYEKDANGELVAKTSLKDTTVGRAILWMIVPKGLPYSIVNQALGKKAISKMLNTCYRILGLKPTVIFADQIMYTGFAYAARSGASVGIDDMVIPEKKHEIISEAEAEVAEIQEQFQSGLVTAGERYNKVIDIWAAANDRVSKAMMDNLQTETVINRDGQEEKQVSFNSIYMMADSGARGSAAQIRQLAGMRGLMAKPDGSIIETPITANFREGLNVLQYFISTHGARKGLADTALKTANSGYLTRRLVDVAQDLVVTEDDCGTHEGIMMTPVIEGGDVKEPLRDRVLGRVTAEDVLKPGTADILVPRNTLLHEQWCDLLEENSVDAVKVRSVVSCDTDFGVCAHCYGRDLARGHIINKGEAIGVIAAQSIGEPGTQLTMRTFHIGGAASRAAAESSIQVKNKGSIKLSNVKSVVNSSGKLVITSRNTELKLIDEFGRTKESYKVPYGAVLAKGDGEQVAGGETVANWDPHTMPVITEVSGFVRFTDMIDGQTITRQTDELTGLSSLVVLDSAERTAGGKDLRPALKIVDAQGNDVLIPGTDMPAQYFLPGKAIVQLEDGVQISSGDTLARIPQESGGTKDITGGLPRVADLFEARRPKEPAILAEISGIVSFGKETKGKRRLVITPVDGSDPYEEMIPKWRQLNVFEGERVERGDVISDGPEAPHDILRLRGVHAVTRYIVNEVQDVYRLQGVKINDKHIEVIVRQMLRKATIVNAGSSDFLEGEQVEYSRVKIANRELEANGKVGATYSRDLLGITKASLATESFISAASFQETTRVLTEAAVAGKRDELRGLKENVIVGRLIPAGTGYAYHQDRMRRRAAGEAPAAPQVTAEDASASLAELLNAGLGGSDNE
T1 sequence (P00582 whole entry): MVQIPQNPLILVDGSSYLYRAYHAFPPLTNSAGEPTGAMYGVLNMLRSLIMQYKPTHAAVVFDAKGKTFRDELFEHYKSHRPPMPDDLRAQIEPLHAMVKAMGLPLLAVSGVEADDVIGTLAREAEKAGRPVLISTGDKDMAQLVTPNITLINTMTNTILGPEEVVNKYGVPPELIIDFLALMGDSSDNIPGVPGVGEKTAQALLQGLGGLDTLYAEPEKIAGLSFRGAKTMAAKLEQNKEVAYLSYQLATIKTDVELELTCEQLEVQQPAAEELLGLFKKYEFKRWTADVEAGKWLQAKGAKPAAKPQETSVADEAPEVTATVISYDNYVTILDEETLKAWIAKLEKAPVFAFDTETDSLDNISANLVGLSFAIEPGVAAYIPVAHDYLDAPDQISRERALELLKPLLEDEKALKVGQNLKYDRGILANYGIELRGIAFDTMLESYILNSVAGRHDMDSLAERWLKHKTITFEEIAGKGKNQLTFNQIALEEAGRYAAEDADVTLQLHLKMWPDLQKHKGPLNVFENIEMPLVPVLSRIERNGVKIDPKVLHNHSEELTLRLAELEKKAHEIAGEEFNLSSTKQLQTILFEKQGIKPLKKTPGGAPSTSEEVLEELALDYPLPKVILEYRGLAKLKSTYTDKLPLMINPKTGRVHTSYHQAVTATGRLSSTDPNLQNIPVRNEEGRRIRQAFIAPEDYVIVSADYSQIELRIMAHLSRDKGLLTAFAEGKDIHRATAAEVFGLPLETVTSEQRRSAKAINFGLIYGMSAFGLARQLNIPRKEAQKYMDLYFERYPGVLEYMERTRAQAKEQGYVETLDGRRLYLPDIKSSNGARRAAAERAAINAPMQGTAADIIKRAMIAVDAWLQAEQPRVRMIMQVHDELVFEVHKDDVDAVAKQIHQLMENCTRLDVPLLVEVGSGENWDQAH

CC[C@H]1OC(=O)[C@H](C)[C@@H](O[C@H]2C[C@@](C)(OC)[C@@H](O)[C@H](C)O2)[C@H](C)[C@@H](O[C@@H]2O[C@H](C)C[C@H](N(C)C)[C@H]2O)[C@](C)(O)C[C@@H](C)/C(=N\OC)[C@H](C)[C@@H](O)[C@]1(C)O [EMO, 9-O-methyl oxime erythromycin A]
DNA-dependent DNA polymerase % Inhibition ([1]; [EMO] 80 μg/ml): −2%
DNA-dependent DNA polymerase Radioactivity ([1]; [EMO] 80 μg/ml): 12,800 cpm
DNA-dependent DNA polymerase % Inhibition ([1]; [EMO] 160 μg/ml): 1%
DNA-dependent DNA polymerase Radioactivity ([1]; [EMO] 160 μg/ml): 12,400 cpm
DNA-dependent DNA polymerase % Inhibition ([1]; [EMO] 320 μg/ml): 0%
DNA-dependent DNA polymerase Radioactivity ([1]; [EMO] 320 μg/ml): 12,600 cpm
HIV RT % Inhibition ([2]; [EMO] 20 μg/ml): 0.8%
HIV RT Radioactivity ([2]; [EMO] 20 μg/ml): 8490 cpm
HIV RT % Inhibition ([2]; [EMO] 40 μg/ml): −0.5%
HIV RT Radioactivity ([2]; [EMO] 40 μg/ml): 8600 cpm
HIV RT % Inhibition ([2]; [EMO] 80 μg/ml): 20%
HIV RT Radioactivity ([2]; [EMO] 80 μg/ml): 6850 cpm
HIV RT % Inhibition ([2]; [EMO] 160 μg/ml): 81%
HIV RT Radioactivity ([2]; [EMO] 160 μg/ml): 1625 cpm
HIV RT % Inhibition ([2]; [EMO] 320 μg/ml): 85%
HIV RT Radioactivity ([2]; [EMO] 320 μg/ml): 1287 cpm
DNA-dependent RNA polymerase % Inhibition ([3]; [EMO] 80 μg/ml): −0.2%
DNA-dependent RNA polymerase Radioactivity ([3]; [EMO] 80 μg/ml): 33,000 cpm
DNA-dependent RNA polymerase % Inhibition ([3]; [EMO] 160 μg/ml): −1%
DNA-dependent RNA polymerase Radioactivity ([3]; [EMO] 160 μg/ml): 32,800 cpm
DNA-dependent RNA polymerase % Inhibition ([3]; [EMO] 320 μg/ml): 0.5%
DNA-dependent RNA polymerase Radioactivity ([3]; [EMO] 320 μg/ml): 32,400 cpm

CC[C@H]1OC(=O)[C@H](C)[C@@H](O[C@H]2C[C@@](C)(OC)[C@@H](O)[C@H](C)O2)[C@H](C)[C@@H](O[C@@H]2O[C@H](C)C[C@H](N(C)C)[C@H]2O)[C@](C)(O)C[C@@H](C)C(=O)[C@H](C)[C@@H](O)[C@]1(C)O [Erythromycin A, erythromycin A]
acid stability [4]: acid labile
